Measured values published in US20210186950A1, “COMBINATIONS COMPRISING TROPIFEXOR AND CENICRIVIROC” (NOVARTIS AG, priority 2018, published 2021).
“Also recorded” adds a separate entry of the source. Read-outs that look alike come from different tables or passages of the source.

How the values were obtained:
NASH with liver fibrosis = conditions: cited from earlier work
[1] = Drug-drug interaction study between TRX and CVC in healthy and healthy but overweight to obese subjects (plasma pharmacokinetics, tolerability); assay type: in vivo, human; conditions: for AUC(0-t) / Cmax: human, plasma, oral, TRX 60 μg
Description: This is a single site, randomized, parallel group, 3 arm double-blind, double-dummy study to evaluate the potential drug-drug interaction between TRX and CVC in healthy and healthy but overweight to obese subjects. Healthy and healthy but overweight to obese subjects with body mass index (BMI) up to 32, are included to give a better representation of the NASH patients that will be studied in future clinical studies. The subjects were randomized into 3 arms a) TRX monotherapy, b) CVC monotherapy, and c) TRX and CVC as a combination.
A total of 42 subjects were randomized into the 3 parallel arms receiving single daily doses of TRX, CVC, and TRX+CVC combination.
This study examined doses of 60 μg of tropifexor and 150 mg of CVC given with a standard breakfast.
Pharmacokinetics: Sample collections included time points up to 24 hours after the first (Day 1) and the last (Day 14) doses to establish the AUC0-24 h,Cmax AUC0-24 h,ss and Cmax,ss for TRX, CVC, and TRX+CVC plasma concentration-time profiles.

[2] = 1-month combination toxicity study with CVC and TRX; assay type: in vivo; conditions: CVC 30 mg/kg/day alone
Protocol: A 1-month combination toxicity study was performed with cenicriviroc (CVC) (30 mg/kg/day) and tropifexor (TRX) (0.03 mg/kg or 1 mg/kg/day).

[3] = Phase I studies of CVC, tolerability; assay type: in vivo, human; conditions: single doses up to 900 mg; multiple daily doses up to 400 mg for 10 days
[4] = Safety in single dose studies of TRX; assay type: in vivo, human; conditions: single dose studies up to 3000 μg
Protocol: (§1) A total of 69 subjects have received TRX at doses ranging from 10 μg to 3000 μg in single or 10 μg to 100 μg in multiple daily doses.

FXR = assay: FGF19 biomarker in single and multiple dose studies of TRX; assay type: in vivo, human; conditions: single doses 10-3000 μg or multiple daily doses 10-100 μg; 69 subjects
Protocol: as §1

[5] = test system: nonalcoholic steatohepatitis; conditions: cited from earlier work
[6] = NASH adults with liver fibrosis, one year
[7] = Day 1, dosed alone, CVC 150 mg, with standard breakfast, read-out: area under the concentration-time curve (AUC0-24 h)
[8] = Day 1, dosed alone, CVC 150 mg, with standard breakfast, read-out: observed peak drug concentration (Cmax)
[9] = Day 14, dosed alone, CVC 150 mg daily, read-out: steady-state AUC0-24 h,ss
[10] = Day 14, dosed alone, CVC 150 mg daily, read-out: steady-state Cmax,ss
[11] = Day 14, TRX 60 μg + CVC 150 mg daily

For `CCCCOCCOc1ccc(-c2ccc3c(c2)/C=C(/C(=O)Nc2ccc([S@@+]([O-])Cc4cncn4CCC)cc2)CCCN3CC(C)C)cc1` [CVC, (S,E)-8-(4-(2-butoxyethoxy)phenyl)-1-(2-methylpropyl)-N-(4-(((1-propyl-1H-imidazol-5-yl)methyl)sulfinyl)phenyl)-1,2,3,4-tetrahydrobenzo[b]azocine-5-carboxamide], the fibrosis (NASH with liver fibrosis; [6]) is listed as “reduction of fibrosis”, the “improvement of NAS” value (NASH with liver fibrosis; [6]) is listed as “no significant impact” and the adverse effects (NASH with liver fibrosis; patients) is listed as “can induce fatigue or diarrhea in a small part of the patients”. For the same compound, the “accumulation in plasma over the study duration” value ([1]; 150 mg daily, Day 1 to Day 14) was “accumulated in plasma”, the “impact of co-administration with TRX on Cmax and AUC0-24 h of CVC” value ([1]; CVC 150 mg + TRX 60 μg) was “no marked impact” and the AUC(0-t) [1, 7] was 4640 ng·h/mL. For the same compound, the Cmax [1, 8] was 450 ng/mL, the AUC(0-t) [1, 9] was 10800 ng·h/mL and the Cmax [1, 10] was 778 ng/mL. The “microscopic findings indicative of toxicity” value [2] was “no microscopic findings indicative of toxicity” and the tolerability [3] was “generally well-tolerated”.
With `O=C(O)c1cc(F)c2nc(N3[C@@H]4CC[C@H]3C[C@@H](OCc3c(-c5ccccc5OC(F)(F)F)noc3C3CC3)C4)sc2c1` [TRX, 2-[(1R,3r,5S)-3-({5-cyclopropyl-3-[2-(trifluoromethoxy)phenyl]-1,2-oxazol-4-yl}methoxy)-8-azabicyclo [3.2.1]octan-8-yl]-4-fluoro-1,3-benzothiazole-6-carboxylic acid] the safety concerns [4] was “No safety concerns”, the “FGF19, biomarker of FXR target engagement in the enterocyte” value (FXR) was “Dose-dependent increases” and the “decrease of AUC0-24 h of TRX on co-administration of CVC” value ([1]; Day 1, TRX 60 μg + CVC 150 mg) was 32%. For the same compound, the “decrease of Cmax of TRX on co-administration of CVC” value ([1]; Day 1, TRX 60 μg + CVC 150 mg) was 33%, the “reduction of AUC0-24 h,ss of TRX when co-administered with CVC” value [1, 11] was 35% and the “reduction of Cmax,ss of TRX when co-administered with CVC” value [1, 11] was 35%. For the same compound, the AUC(0-t) [1, 7] was 17.9 ng·h/mL, the Cmax [1, 8] was 1.46 ng/mL and the AUC(0-t) [1, 9] was 25.2 ng·h/mL. For the same compound, the Cmax [1, 10] was 1.77 ng/mL and the “reduction of TRX exposure by co-administration of CVC” value ([1]; summary statement, TRX 60 μg + CVC 150 mg) was 32-33%.
In the case of `CC[C@H]1[C@@H](O)[C@@H]2[C@H](CC[C@]3(C)[C@@H]([C@H](C)CCC(=O)O)CC[C@@H]23)[C@@]2(C)CC[C@@H](O)C[C@@H]12` [OCA, obeticholic acid], the “adverse effects on long term administration” value [5] is listed as “pruritus; also recorded: increased LDL cholesterol”.
